What was measured:
[1] = tested on: T. brucei Lister427; experiment: Trypanosome proliferation inhibition assay (SYBR Green, 48 h); type: cell-based; settings: Trypanosoma brucei; continuous exposure 48 h, 4 × 10^3 trypanosomes/mL
Method: Trypanosome proliferation inhibition assays
T. b. Lister 427 or T. b. AnTat1.1 were seeded at 4 × 10^3 cells/mL or 2 × 10^3 cells/mL (in 50 μL culture medium), respectively, into 384-well black plate (Greiner; Frickenhausen, Germany) and treated with serial dilutions of each compound in duplicate. Plates were incubated for 48 h at 37 °C and 5% CO2. […] Fluorescence in lysates was quantitated with a fluorometer (Fluoroskan Ascent Microplate Fluorometer, Thermo Scientific) (100 ms; ex: 485 nm, em: 538 nm). Each experiment was performed in triplicate.

[2] = tested on: endocytosis of bovine serum albumin (BSA) in Trypanosoma brucei; type: cell-based; settings: DTC25; Table S3
Method: Cells were washed and resuspended in serum-free medium. Trypanosomes were incubated with fluorescent endocytosis ligands transferrin (Tf) or bovine serum albumin (BSA) for 30 min (37 °C). A flow cytometer was used to detect fluorescence intensity per cell. Propidium iodide (PI) was used to stain and gate out non-viable cells. Histograms present fluorescence intensity of Tf-AF488 (A) or BSA-AF647 (B) for every cell (n > 10,000 for each cargo) in DMSO or drug-treated samples. Points on the scatter plot represent mean fluorescence intensities of Tf (C) or BSA (D) from three biological replicates (calculated with FlowJo). Bars indicate mean ± SD. […]
Curaxin or DMSO-treated trypanosomes (5 × 10^5/mL) were washed with serum-free HMI-9 medium (500 uL). […] Cells were transferred to an ice-water bath, washed with cold PBS/G at 4 °C (3,000 g for 5 min), resuspended in PBS/G (500 μL) containing propidium iodide (3 μM), and analyzed on a flow cytometer (Beckman Coulter CytoFLEX S). FlowJo software (FlowJo, LLC) was used to gate trypanosomes based on size and shape (forward and side scatter features), and fluorescence intensity of endocytosed protein was measured in viable cells (negative for propidium iodide uptake). FlowJo software was used to determine the mean fluorescence intensity of each cargo in trypanosomes (at least 10,000 events). […]

[3] = Human liver microsome intrinsic clearance (HLM Clint); type: in vitro ADME; settings: human liver microsomes, 37 °C
Method: Intrinsic metabolic clearance.
The test compound was added to a final concentration of 1 μM, and the residual concentrations were tracked with LC-MS/MS at defined time points.

[4] = tested on: DNA synthesis in Trypanosoma brucei; experiment: DNA synthesis (EdU incorporation); type: cell-based; settings: for Effect on EdU incorporation into nuclei (DNA synthesis): DTC25 (CBL0174 48 nM, CBL0187 54 nM), vs DMSO, p < 0.0001; for DNA Synthesis affected: DTC25, Table S3
Method: Incorporated EdU was tracked by clicking with azide-Alexa Fluor-488 and observed with a fluorescence microscope. For quantitation, at least 100 cells were analyzed from each sample. (A) Representative images of the EdU-positive signal (green) with DAPI (blue) in 0.1% DMSO (top), CBL0174-treated (middle), or CBL0187-treated cells (bottom). (B) Representative images for quantitation of nuclear EdU brightness (nEdU). CellProfiler 3.1.9 was used to extract the EdU fluorescence signal over the DAPI area. Lines represent the median with error bars denoting standard deviation (SD) from three biological replicates. The statistical significance of the distribution of EdU brightness in different treatment groups was analyzed with a Mann–Whitney test.
Bloodstream trypanosomes (5 × 10^5 cells/mL) pretreated with DTC25 concentrations of CBL0174 or CBL0187 in HMI-9 medium (for 15 min) were incubated with 5-ethynyl-2′-deoxyuridine (EdU) (Abcam) (300 μM) for 1 h. Cells were prepared as per [Sullenberger et al. (2017)]. Images of trypanosomes were captured using a DeltaVision II Olympus inverted microscope processed with Fiji (ImageJ, v 2.0.0) and analyzed using CellProfiler 3.1.9 ([Sanz-Rodriguez et al., 2022]).

[5] = in vivo; settings: both sexes, mouse, oral, Swiss Webster mice, 10 consecutive days, read-out: Repeated maximum tolerated dose (rMTD)
Method: Maximum tolerated dose of compounds in mice.
To determine a single maximum tolerated dose (sMTD), male and female Swiss Webster mice were first given a single 50 mg/kg dose of compound formulated in N-methyl-2-pyrrolidone (10% v/v) and 0.2% hydroxypropyl methylcellulose (90% v/v). Mice were monitored daily for up to 7 days post-administration for overall condition using a Total Condition Scoring (TCS) system (Supplementary Table S1) and body weight changes. If greater than 20% body weight loss was recorded, the dose was lowered in two-fold amounts in subsequent tests. […] When no toxicity was observed, sMTD values were utilized to determine the repetitive maximum tolerated dose (rMTD). Male and female Swiss-Webster mice were treated with sMTD for 10 consecutive days. […] If adverse effects were recorded, the daily doses were reduced two-fold in follow-up work. At the end of the study, mice were euthanized by CO2 asphyxiation followed by cervical dislocation.

[6] = tested on: T. brucei Lister 427; experiment: Effect of 50% serum on curaxin inhibition of trypanosome proliferation; type: cell-based, Trypanosoma brucei; settings: 20, 35 or 50% FBS; Figure S3
Method: HMI-9 medium ([Hirumi and Hirumi, 1989]) was prepared with different final concentrations of fetal bovine serum (FBS) (20, 35, and 50%). T. brucei Lister 427 was cultured in each medium for at least 7 days. […] EC50 measurements were obtained from three independent experiments in each medium.
containing 20%, 35% or 50% FBS
At 0 h, 4x103 trypanosomes/ml in
media with drug; 37°C, 5% CO2
Cells lysed and SYBR green
Hirumi, 1989) was modified to contain 20, 35, or 50% fetal bovine serum (FBS) (total
concentration). T. b. brucei Lister 427 was first cultured in the medium for 7 days.
(50 µL). Plates were incubated for 48 h at 37 °C and 5% CO2, and the proliferation of
trypanosomes was measured using a SYBR green assay (Faria et al., 2015). Each experiment
was performed thrice, and non-linear regression fits to the data were obtained using GraphPad
Prism which was used to calculate EC50 values. The possible statistical significance of the
FBS-medium (control) was determined by Student’s T-test.

With CC(=O)c1cc2c3cc(C(C)=O)c(O)cc3n(CCCN(C)C)c2cc1O [CBL0174, 1-[6-acetyl-9-[3-(dimethylamino)propyl]-2,7-dihydroxy-carbazol-3-yl]ethanone] the EC50 [1] was 21 nM, the “Endocytosis BSA affected” value [2] was “No” and the microsomal CLint at 1 μM [3] was 4.89 µL/min/mg. For the same compound, the “Effect on EdU incorporation into nuclei (DNA synthesis)” value [4] was “inhibited EdU incorporation into nuclei”, the “DNA Synthesis affected” value [4] was “Yes” and the MTD at 10 days [5] was 60 mg/kg.

For CC(=O)c1cc2c3cc(C(C)=O)c(O)cc3n(CCNC(C)C)c2cc1O [CBL0187, 1-[6-acetyl-2,7-dihydroxy-9-[2-(isopropylamino)ethyl]carbazol-3-yl]ethanone], the EC50 [1] was 8.9 nM, the “Endocytosis BSA affected” value [2] was “No” and the microsomal CLint at 1 μM [3] was 12.4 µL/min/mg. For the same compound, the “Effect of serum on anti-trypanosome potency” value [6] was “decreases”, the “Effect on EdU incorporation into nuclei (DNA synthesis)” value [4] was “inhibited EdU incorporation into nuclei” and the “DNA Synthesis affected” value [4] was “Yes”. It also gave an MTD at 10 days [5] of 50 mg/kg.

From publication PMC11927960, “Multiparameter ranking of carbazoles for anti-trypanosome lead discovery” (Frontiers in drug discovery, 2024)
